Measurements reported in patent publication US8916604B2, “Compositions and methods for epigenetic modification of nucleic acid sequences” (Rutgers, The State University of New Jersey, priority 2011, dated 2014).

Legend:
[1] = tested on: apoptotic cells in the dorso-lateral prostates; test: IHC staining of TRAMP prostate tissue, apoptosis (TUNEL); format: in vivo, mouse; details: D-G1 and D-G2 vs control, p<0.001
Description: (§1) Sections (4 μm) were cut from the paraffin embedded prostate tissue and mounted on glass slides. The slides Were deparafinized in xylene and antigen unmasking was performed by applying proteinase K digestion directly on the slides for 15 min. Endogenous peroxidase was blocked by incubating in 3% […] for 5 min, and ApopTag Plus Peroxidase In Situ Apoptosis Detection Kit (Millipore, Temecula, Calif., U.S.A.) was used to detect apoptotic cells. For detection of proliferative cells, monoclonal mouse anti-proliferating cell nuclear antigen (PCNA) antibody (Clone PC10, 1:50, Dako North America, Carpinteria, Calif., U.S.A.) was used (12). The staining was performed following as the manufacturer's protocols. Anti-5-methylcytosine (5-MC) mouse monoclone antibody (Clone 162 33 D3, 1:50, EMD Chemicals, Philadelphia, Pa., U.S.A.) was used to detect genome-wide methylated DNA. […] Quantitation of IHC staining was done using the Aperio ScanScope® GL system according to the manufactures protocol (Aperio Technologies Inc., Vista, Calif., U.S.A.). […] The Aperio ImageScopoe software (v 10.1.3.2028) allowed the unbiased quantification and quantitative analysis of the IHC staining of biomarkers of prostate tumor samples obtained from untreated control versus the treated TRAMP mice.

[2] = tested on: NQO1; test: Western blot of TRAMP dorso-lateral prostate tissues; format: in vivo, mouse; details: D-G1 and D-G2; undetectable in control
Description: (§2) The TRAMP C1 cells or dorso-lateral prostate tissues collected from treated and control groups were pooled and homogenized with RIPA buffer (Cell Signaling Technology, Danvers, Mass., U.S.A.) and 10 μg/ml protease inhibitor cocktail (EMD Chemicals, Philadelphia, Pa., U.S.A.). Protein (20 μg) was loaded onto 4-15% SDS-PAGE (Bio-Rad Laboratories, Hercules, Calif., U.S.A.). After separation by SDS-PAGE, the protein was transferred onto nitrocellulose membrane (Millipore Corp., Billerica, Mass., U.S.A.), and then was blocked in 5% bovine serum albumin (BSA) (Fisher Scientific, Fair Law, J. U.S.A.) in tris buffer saline tween-20 (TBST) solution for 1 h. […] After washing min 4 times with TBST solution, the immunoreactive bands were determined by adding SuperSignal West Femto mix (1:1 mix of stable peroxide buffer and luminol/enhancer solution (Thermo Scientific, Rockford, Ill., U.S.A.) to detect immunoreactive bands. The bands were visualized and quantified by BioRad ChemiDoc XRS system (Hercules, Calif., U.S.A.). The primary antibodies used were β-actin, Nrf2, NQO1 (Santa Cruz Biotechnology, Santa Cruz, Calif., U.S.A.), HDAC1, HDAC2, HDAC3, HDAC4 (Cell Signaling Technology Inc., Danvers Mass., U.S.A.), HDAC8 (Proteintech Group Inc., Chicago, Ill., U.S.A.) and DNMT1, DNMT3a, DNMT3b (Imgenex, San Diego, Calif., U.S.A.). […]

[3] = tested on: Nrf2; test: as above; format: in vivo, mouse; details: D-G1 and D-G2; undetectable in control
Description: as §2

[4] = tested on: PCNA; test: IHC staining of TRAMP prostate tissue, cell proliferation; format: in vivo, mouse; details: D-G1 (16 weeks) or D-G2 (12 weeks) vs control
Description: as §1

[5] = Overall health and toxicity of TRAMP mice on DIM diet; format: in vivo
Description: DIM was obtained from Sigma-Aldrich (St. Louis, Mo., U.S.A.). MN-76A diets containing 1% DIM were prepared by Research Diets Inc. (New Brunswick, N.J., U.S.A.) and stored at −20° C. The dose was chosen based in part on studies reported previously Anderton et al., Drug Metab Dispos. 2004; 32: 632-8; and Xue et al., J Nutr Biochem. 2008; 19: 336-44). In our present study, 1% DIM was well-tolerated with these TRAMP mice. The control TRAMP males (n=19) received A1N-76A diets throughout the experiment while the treated TRAMP males received 1% DIM diet starting from eight weeks of age (n=9) as Group 1 (D-G1) and Group 2 (D-G2) starting from twelve weeks of age (n=8) (FIG. 12A). Fresh diets were added to the cages twice weekly.
TRAMP males were weighed weekly and the overall health of the animals was monitored on a regular basis. All mice were sacrificed at the age of 24 weeks by carbon dioxide euthanasia and the genitourinary apparatus (GU) consisting of the seminal vesicles, prostate, and bladder were isolated for further analyses (FIG. 12B).
The overall health of all the mice was monitored during the study period and found to be in good health. All mice were weighed and checked weekly during the course of this study.

[6] = tested on: Nrf2; test: qPCR mRNA expression in HepG2-C8 cells; format: cell-based, human; details: 25 μM, 6 h, vs 0.1% DMSO
Description: The cells were treated similarly to the NITS and ARE-luciferase assays described above using 10% FBS medium. The incubation of the compounds with the cells was terminated 6 h later. The mRNA expression was evaluated utilizing a quantitative real-time polymerase chain reaction (qPCR). An RNeasy kit from Qiagen was used for RNA extraction (Valencia, Calif.). The total RNA was reverse-transcribed to cDNA by TaqMan Reverse Transcription Reagents (Applied Biosystems Inc, Foster City, Calif.). SYBR Green (Applied Biosystems Inc, Foster City, Calif.) fluorescence was used to measure the product of qPCR. Glyceraldehyde 3-phosphate dehydrogenase (GAPDH) was used as the housekeeping gene, and the Applied Biosystems 7900HT Fast Real-Time PCR System (Applied Biosystems Inc, Foster City, Calif.) was used as described previously (Saw et al., Biochem Pharmacol 2010; 79: 421-430) to detect quantitatively the induction of mRNA of Nrf2, phase II DME GSTm2, NAD (P)H dehydrogenase, quinone 1 (NQO1), UGT family, polypeptide A1 (UGT1A1) and antioxidant enzymes HO-1, superoxide dismutase 1 (SOD1). The primer pairs were designed using the Primer Quest Oligo Design and Analysis Tool by Integrated DNA Technologies Inc. (Coralville, Iowa, USA) and the sequences are listed in Table 4. At least four wells of each treatment were performed and duplicate samples were carried out for each treatment.

c1ccc2c(Cc3c[nH]c4ccccc34)c[nH]c2c1 [DIM, 3,3′-diindolylmethane]
percent of apoptotic cells [1]: significantly higher | NQO1 protein expression [2]: induced | Nrf2 protein expression [3]: induced | PCNA staining (cell proliferation) [4]: significantly lower levels | weights of liver, kidney and spleen ([5]; 1% DIM diet, at sacrifice): no significant change | body weights ([5]; 1% DIM diet, throughout the study period): No significant change | signs of toxicity ([5]; mouse, in vivo): no specific observable sign of toxicity | tolerability ([5]; mouse, in vivo): well-tolerated | Nrf2 mRNA induction over control [6]: ~3 fold
